# Literature values in US12134602B2 (Yale University, priority 2011, dated 2024).
# Conditions: in vivo
smiles,measurement,value
"C/C=C1\[C@H]2C=C(C)C[C@]1(N)c1ccc(=O)[nH]c1C2 [(−)-Huperzine A, (−)-huperzine A]",tolerability,well tolerated
